Columns and labels:
human CCR5 = target: T1, human CCR5 (Homo sapiens, UniProt P51681); assay: Evaluation of test compounds based on CCR5 antagonistic activity: inhibition of [125I]-RANTES binding to CCR5/CHO cells; settings: Test Compound 1 μM, 100 pM [125I]-RANTES, room temperature for 40 minutes; for inhibition at 1 µM: read-out: Inhibitory Rate (%)
T1 construct: expressed in transfected cells
Procedure: Cloning of CCR5 gene was carried out by a PCR method from human spleen cDNA. With using 0.5 ng of spleen cDNA (Toyobo, QUICK-Clone cDNA) as template, PCR was performed in DNA Thermal Cycler 480 (Perkin-Elmer) (reaction conditions: 30 cycles of 95° C. for 1 minute, 60° C. for 1 minute, and 75° C. for 5 minutes) by adding each 25 pmol of primers of a primer set, • SEQ ID NO.: 1 described in Test Example (1) of WO 99/32100 [length of sequence: 34; type of sequence: nucleic acid; strandedness: single; topology: straight; kind of sequence: other nucleic acid synthetic DNA, and • SEQ ID NO.: 2 described in Test Example (1) of WO 99/32100 [length of sequence: 34; type of sequence: nucleic acid; strandedness: single; topology: straight; kind of sequence: other nucleic acid synthetic DNA which were designed referring to nucleotide sequence of CCR5 gene reported by Samson et. al. (Biochemistry, 35(11), 3362-3367 (1996)) and by using TaKaRa EX Taq (Takara Shuzo). The resultant PCR product was subjected to agarose gel electrophoresis to collect about 1.0 kb DNA fragment, which was subjected to Original TA Cloning Kit (Funakoshi) to carry out cloning of CCR5 gene. (2) Preparation of Plasmid for Expression of Human CCR5
The plasmid obtained in the above (1) was digested with restriction enzymes XbaI (Takara Shuzo) and BamHI (Takara Shuzo) and subjected to agarose gel electrophoresis to collect about 1.0 kb DNA fragment.
The DNA fragment was mixed with plasmid pcDNA3.1 (Funakoshi) for expression in animal cells, said plasmid being digested with XbaI and BamHI, and they were ligated with DNA Ligation Kit Ver.2 (Takara Shuzo). The resulting plasmid was subjected to transformation of competent cell of E. coli JM109 (Takara Shuzo) to obtain plasmid pCKR5.
CHO-K1 cells were grown in 750 ml of tissue culture flask (Becton Dickinson) using Ham's F12 medium (Nihon Pharmaceutical) containing 10% fetal calf serum (Life Tech Oriental) and taken off with 0.5 g/L trypsin-0.2 g/L EDTA (Life Tech Oriental). The cells were washed with PBS (Life Tech Oriental), centrifuged (1000 rpm, 5 minutes), and suspended in PBS. With using Gene Pulser (Bio-Rad Laboratories), DNA was introduced into the cells under the conditions shown below. That is, to the cuvette of 0.4 cm gap were added 8×10^6 cells and 10 μg of plasmid pCKR5 for expression of human CCR5, and electroporation was carried out under 0.25 kV of voltage and 960 μF of capacitance. The cells were transferred into Ham's F12 medium containing 10% fetal calf serum, and cultivated for 24 hours. The cells were again taken off and centrifuged, and suspended in Ham's F12 medium containing 10% fetal calf serum and 500 μg/ml of geneticin (Life Tech Oriental). The suspension was diluted to give 10^4 cells/ml of the suspension, which was inoculated on a 96 well plate (Becton Dickinson) to give geneticin resistant cells.
The resulting geneticin resistant cells were cultivated in 96 well plate (Becton Dickinson), and cells expressing CCR5 were selected from the geneticin resistant cells. That is, in assay buffer (Ham's F12 medium containing 0.5% BSA and 20 mM HEPES (Wako Pure Chemical, pH7.2)) to which was added 200 pM of [^125I]-RANTES (Amersham) as a ligand, a binding reaction was carried out at room temperature for 46 minutes, and the buffer was washed with cooled PBS. To the buffer was added 50 μl/well of 1M NaOH, and the mixture was stirred. Radioactivity was determined with a y-counter to select CCR5/CHO cells which specifically bind to the ligand.
The CCR5/CHO cells were inoculated on 96 well microplate (5×10^4 cells/well) and cultivated for 24 hours. The medium was removed by means of suction, and to each well was added an assay buffer containing Test Compound (1 μM) and then 100 pM of [^125I]-RANTES (Amersham) as a ligand. A binding assay was carried out at room temperature for 40 minutes, and an assay buffer was removed by means of suction. […]

T1 sequence (P51681 whole entry): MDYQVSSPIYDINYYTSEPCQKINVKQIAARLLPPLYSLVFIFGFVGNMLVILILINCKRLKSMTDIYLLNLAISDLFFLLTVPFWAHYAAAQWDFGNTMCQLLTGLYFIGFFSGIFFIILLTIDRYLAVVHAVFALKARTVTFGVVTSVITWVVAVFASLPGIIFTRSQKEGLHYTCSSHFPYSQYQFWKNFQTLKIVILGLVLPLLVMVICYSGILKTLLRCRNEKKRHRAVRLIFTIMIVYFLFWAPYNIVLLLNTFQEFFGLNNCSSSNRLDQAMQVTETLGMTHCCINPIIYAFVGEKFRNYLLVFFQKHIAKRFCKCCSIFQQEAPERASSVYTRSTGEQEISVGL

Inhibitory Rate (%) (human CCR5)	SMILES	inhibition at 1 µM (human CCR5)	melting point
	CCCCOCCOc1ccc(-c2ccc3c(c2)C=C(C(=O)Nc2ccc(CN(C)C4CCCOC4)cc2)CCN3Cc2cc(C)ns2)cc1 (stereo not shown) [Compound 77, 7-(4-butoxyethoxyphenyl)-1-[(3-methylisothiazol-5-yl)methyl]-N-[4-[[N-methyl-N-(tetrahydropyran-5-yl)amino]methyl]phenyl]-2,3-dihydro-1-benzazepine-4-carboxamide]	97%	
	CCCCOCCOc1ccc(-c2ccc3c(c2)C=C(C(=O)Nc2ccc(CN(C)C4CCOCC4)cc2)CCN3CCCOC)cc1 [Compound 104, 7-[4-(2-butoxyethoxy)phenyl]-1-(3-methoxypropyl)-N-[4-[[N-methyl-N-(tetrahydropyran-4-yl)amino]methyl]phenyl]-2,3-dihydro-1H-1-benzazepine-4-carboxamide]	98%	87 to 90 °C
	CCCCOCCOc1ccc(-c2ccc3c(c2)C=C(C(=O)Nc2ccc(CN(C)C4CCOCC4)cc2)CCN3Cc2nnn(CC)n2)cc1 [Compound 112, 7-[4-(2-butoxyethoxy)phenyl]-1-(2-ethyltetrazol-5-ylmethyl)-N-[4-[N-methyl-N-(tetrahydropyran-4-yl)aminomethyl]phenyl]-2,3-dihydro-1-benzazepine-4-carboxamide]	100%	
	CCCCOCCOc1ccc(-c2ccc3c(c2)C=C(C(=O)Nc2ccc(CN(C)C4CCOCC4)cc2)CCN3Cc2ccccc2)cc1 [Compound 33, 1-benzyl-7-[4-(2-butoxyethoxy)phenyl]-N-[4-[[N-methyl-N-(tetrahydro-2H-pyran-4-yl)amino]methyl]phenyl]-2,3-dihydro-1H-1-benzazepine-4-carboxamide]	98%	127 to 131 °C
	CCOCCOc1ccc(-c2ccc3c(c2)C=C(C(=O)Nc2ccc(CN(C)C4CCOCC4)cc2)CCN3C=O)cc1F [Compound 20, 7-[4-(2-ethoxy)ethoxy-3-fluorophenyl]-1-formyl-N-[4-[[N-methyl-N-(tetrahydro-2H-pyran-4-yl)amino]methyl]phenyl]-2,3-dihydro-1H-1-benzazepine-4-carboxamide]	94%	
	CCCOCCOc1ccc(-c2ccc3c(c2)C=C(C(=O)Nc2ccc(CN(C)C4CCOCC4)cc2)CCN3CCC)cc1 [Compound 26, N-[4-[[N-methyl-N-(tetrahydro-2H-pyran-4-yl)amino]methyl]phenyl]-7-[4-(2-propoxyethoxy)phenyl]-1-propyl-2,3-dihydro-1H-1-benzazepine-4-carboxamide]	100%	128 to 130 °C
	CCCCOCCOc1ccc(-c2ccc3c(c2)C=C(C(=O)Nc2ccc(CN(C)C4CCOCC4)cc2)CCN3c2ccccc2)cc1 [Compound 39, 7-[4-(2-butoxyethoxy)phenyl]-1-phenyl-N-[4-[[N-methyl-N-(tetrahydro-2H-pyran-4-yl)amino]methyl]phenyl]-2,3-dihydro-1H-1-benzazepine-4-carboxamide]	98%	
	CCCCOCCOc1ccc(-c2ccc3c(c2)C=C(C(=O)Nc2ccc(CN(C)C4CCOCC4)cc2)CCN3Cc2cnn(C)c2)cc1 [Compound 69, 7-(4-butoxyethoxyphenyl)-1-[(1-methylpyrazol-4-yl)methyl]-N-[4-[[N-methyl-N-(tetrahydropyran-4-yl)amino]methyl]phenyl]-2,3-dihydro-1-benzazepine-4-carboxamide]	100%	
	CCCCOCCOc1ccc(-c2ccc3c(c2)C=C(C(=O)Nc2ccc(CN(C)C4CCOCC4)cc2)CCN3c2csc(C)n2)cc1 [Compound 45, 7-[4-(2-butoxyethoxy)phenyl]-1-(2-methylthiazol-4-yl)-N-[4-[[N-methyl-N-(tetrahydro-2H-pyran-4-yl)amino]methyl]phenyl]-2,3-dihydro-1H-1-benzazepine-4-carboxamide]	100%	115 to 123 °C
	CCCCOCCOc1ccc(-c2ccc3c(c2)C=C(C(=O)Nc2ccc(CN(C)C4CCOCC4)cc2)CCN3c2ccc3c(c2)OCO3)cc1 [Compound 43, 7-[4-(2-butoxyethoxy)phenyl]-1-(3,4-methylenedioxyphenyl)-N-[4-[[N-methyl-N-(tetrahydro-2H-pyran-4-yl)amino)methyl]phenyl]-2,3-dihydro-1H-1-benzazepine-4-carboxamide]	100%	
	CCCCOCCOc1ccc(-c2ccc3c(c2)C=C(C(=O)Nc2ccc(CN(C)C4CCOCC4)cc2)CCN3Cc2c(C)noc2C)cc1 [Compound 71, 7-(4-butoxyethoxyphenyl)-1-[(3,5-dimethylisoxazol-4-yl)methyl]-N-[4-[[N-methyl-N-(tetrahydropyran-4-yl)amino]methyl]phenyl]-2,3-dihydro-1-benzazepine-4-carboxamide]	100%	
	CCCCOCCOc1ccc(-c2ccc3c(c2)C=C(C(=O)Nc2ccc(CN(C)C4CCOCC4)cc2)CCN3Cc2nnn(C)n2)cc1 [Compound 102, 7-[4-(2-butoxyethoxy)phenyl]-N-[4-[N-methyl-N-(tetrahydropyran-4-yl)aminomethyl]phenyl]-1-(2-methyltetrazol-5-ylmethyl)-2,3-dihydro-1-benzazepine-4-carboxamide]	100%	
100%	CCCCOCCOc1ccc(-c2ccc3c(c2)C=C(C(=O)Nc2ccc(CN(C)C4CCOCC4)cc2)CCN3CC(C)C)cc1 [Compound 85]		
	CCCOCCOc1ccc(-c2ccc3c(c2)C=C(C(=O)Nc2ccc(CN(C)C4CCOCC4)cc2)CCN3CC(C)C)cc1 [Compound 84, 1-isobutyl-N-[4-[N-methyl-N-(tetrahydropyran-4-yl)aminomethyl]phenyl]-7-[4-(2-propoxyethoxy)phenyl]-2,3-dihydro-1-benzazepine-4-carboxamide]	97%	
	CCCCOCCOc1ccc(-c2ccc3c(c2)C=C(C(=O)Nc2ccc(CN(C)C4CCOCC4)cc2)CCN3Cc2nccs2)cc1 [Compound 68, 7-(4-butoxyethoxyphenyl)-N-[4-[[N-methyl-N-(tetrahydropyran-4-yl)amino]methyl]phenyl]-1-(thiazol-2-yl)methyl-2,3-dihydro-1-benzazepine-4-carboxamide]	95%	
	CCCCOCCOc1ccc(-c2ccc3c(c2)C=C(C(=O)Nc2ccc(CN(C)C4CCCOC4)cc2)CCN3Cc2cnn(CC)c2)cc1 (stereo not shown) [Compound 79, 7-(4-butoxyethoxyphenyl)-1-[(1-ethylpyrazol-4-yl)methyl]-N-[4-[[N-methyl-N-(tetrahydropyran-5-yl)amino]methyl]phenyl]-2,3-dihydro-1-benzazepine-4-carboxamide]	100%	
100%	CCCCOCCOc1ccc(-c2ccc3c(c2)C=C(C(=O)Nc2ccc(CN(C)C4CCOCC4)cc2)CCN3Cc2cncs2)cc1 [Compound 98]		

SMILES	Inhibitory Rate (%) (human CCR5)	inhibition at 1 µM (human CCR5)	melting point
CCCCOCCOc1ccc(-c2ccc3c(c2)C=C(C(=O)Nc2ccc(CN(C)C4CCOCC4)cc2)CCN3CC)cc1 [Compound 19, 7-[4-(2-butoxyethoxy)phenyl]-1-ethyl-N-[4-[[N-methyl-N-(tetrahydro-2H-pyran-4-yl)amino]methyl]phenyl]-2,3-dihydro-1-H-1-benzazepine-4-carboxamide]	100%		

— US6936602B1, “Benzazepine derivatives, process for the preparation of the same and uses thereof” (Takeda Chemical Industries, Ltd., priority 1999, dated 2005)
